Measured values reported in PubChem BioAssay AID1963843 (Molecular Pharmacology Branch, DTP, NCI, 2024).
pIC50: −log10 of the molar value.

System: 616215-338-R-J1-PDC complex spheroid viability
Test: Anticancer human tumor 616215-338-R-J1-PDC patient-derived colon adenocarcinoma cell line growth inhibition [POLQ]
Details: for pIC50: curve of first compound; for viability, T/C: stronger effect = lower value
Method: Multicellular complex tumor spheroid response to Polymerase (POL) inhibitors (novobiocin, ART-558, RP6685) in combination with a variety of drugs and investigational agents in selected tumor cell lines
The POL inhibitors (novobiocin, ART-558, and RP6685) were evaluated both individually and in combination with standard of care and investigational anticancer small molecules within a complex spheroid model of solid tumors. . Complex spheroids include a stromal component modeled by human endothelial cells (HUVEC) and fibroblasts modeled by human mesenchymal stem cells (MSCs). The concentration ranges selected for each drug and investigational agent were based upon clinically achievable concentrations if the clinical Cmax of the agent was known.
Compounds. The drugs and investigational agents: novobiocin (NSC847541), ART-558 (NSC835418), RP-6685 (NSC848927), peposertib (NSC802822), ceralasertib (NSC780249), elimusertib (NSC800525), camonsertib (NSC841442), AZD-1390 (NSC803789), olaparib (NSC753686), talazoparib (NSC767125), rucaparib (NSC756644), sotorasib (NSC818433), MRTX-1133 (NSC836407), SN-38 (NSC673596), topotecan (NSC609699), epotoside (NSC141540), doxorubicin (NSC123127), gemcitabine (NSC613327), 5-fluorouracil (NSC19893), paclitaxel (NSC125973), vemurafenib (NSC761431), MSA-2 (NSC828583), SN-011 (NSC837082), adavosertib (NSC754352), prexasertib (NSC758257), carboplatin (NSC241240) and oxaliplatin (NSC266046), were obtained from the National Cancer Institute (NCI) Developmental Therapeutics Program Chemical Repository (21). The FDA-approved anticancer drug set is available from the Developmental Therapeutics Program at https://dtp.cancer.gov/organization/dscb/obtaining/. […] The stock solutions were prepared in dimethyl sulfoxide (DMSO, Sigma-Aldrich, St. Louis, MO, cat. D2650), except for the platinum compounds which were prepared in saline (Quality Biological, Gaithersburg, MD, cat. 114-055-101), at 800-fold the tested concentration and stored at -70 degrees C prior to their use. All drugs and investigational agents were tested over a range starting from a high concentration at or near the clinical Cmax and decreasing in half-log increments. If the clinical Cmax for an agent had not been determined, the highest concentration tested was 10 microM, except for SN-38, which was tested at a high concentration of 1 microM.
Cell Culture. All cells were maintained in an incubator at 37 degrees C and 5% CO2 with 95% humidity. The PDC lines were cultured according to standard operating procedures established by the NCI PDMR (https://pdmr.cancer.gov). Table 3 of the manuscript, lists the cell lines along with the number of the three cell types plated to form the mct-spheroids and media for tumor cell growth. After thawing, all PDC lines, except 997537-175-T-J1-PDC and 415267-285-R-J2-PDC, were cultured in Matrigel-coated flasks prepared with a working solution of 1X Ham's F-12 nutrient mix, without supplementation (Thermo Fisher Scientific, cat. 11765054), 100 U/mL penicillin-streptomycin (Thermo Fisher Scientific, cat. 15140122), and 2.5% Matrigel (Corning Inc., Corning, NY, cat. 354248) for the first three passages. The two PDC lines 997537-175-T-J1-PDC and 415267-285-R-J2-PDC were cultured on uncoated flasks. The 857933-349-R-J2-PDC line was cultured in 6C/Colon 1B media containing advanced DMEM/F-12 (Thermo Fisher Scientific, cat. 12634028), 10 mM HEPES (Thermo Fisher Scientific, cat. 15630080), 1X GlutaMAX supplement (Thermo Fisher Scientific, cat. 35050061), 0.1 mg/mL primocin (InvivoGen, San Diego, CA, cat. ant-pm-2), 10% defined fetal bovine serum, heat inactivated (HyClone Laboratories Inc., Logan, UT, cat. SH30070.03HI), 50% L-WRN conditioned media (ATCC, cat. CRL-3276), 1.25 mM N-Acetyl-L-cysteine (Sigma-Aldrich, cat. A9165), 10 mM nicotinamide (Sigma-Aldrich, cat. N0636), 1X B-27 supplement (Thermo Fisher Scientific, cat. 17504044), 1X N-2 supplement (Thermo Fisher Scientific, cat. […]

[1] = second compound 0.0316 µM, first compound 0.00316 µM
[2] = second compound 0.0316 µM, first compound 0.01 µM
[3] = second compound 0.0316 µM, first compound 0.0316 µM
[4] = second compound 0.0316 µM, first compound 0.1 µM
[5] = second compound 0.1 µM, first compound 0.00316 µM
[6] = second compound 0.1 µM, first compound 0.01 µM
[7] = second compound 0.1 µM, first compound 0.0316 µM
[8] = second compound 0.1 µM, first compound 0.1 µM
[9] = second compound 0.316 µM, first compound 0.00316 µM
[10] = second compound 0.316 µM, first compound 0.01 µM
[11] = second compound 0.316 µM, first compound 0.0316 µM
[12] = second compound 0.316 µM, first compound 0.1 µM
[13] = second compound 1 µM, first compound 0.00316 µM
[14] = second compound 1 µM, first compound 0.01 µM
[15] = second compound 1 µM, first compound 0.0316 µM
[16] = second compound 1 µM, first compound 0.1 µM
[17] = second compound 3.16 µM, first compound 0.00316 µM
[18] = second compound 3.16 µM, first compound 0.01 µM
[19] = second compound 3.16 µM, first compound 0.0316 µM
[20] = second compound 3.16 µM, first compound 0.1 µM
[21] = second compound 10 µM, first compound 0.00316 µM
[22] = second compound 10 µM, first compound 0.01 µM
[23] = second compound 10 µM, first compound 0.0316 µM
[24] = second compound 10 µM, first compound 0.1 µM
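Further: spheroids exposed to compounds for one week before readout.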
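Wherever viability, T/C is given: percent viability relative to DMSO vehicle wells taken as 100%.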

## COc1cccc(OCCCN)c1-c1cc(Nc2cnc(C#N)cn2)n[nH]1 + Cc1cccc(N(C)C(=O)C2C(O)CCN2c2nc(C)cc(C(F)(F)F)c2C#N)c1
Second compound 0.0316 µM
  pIC50: 7.03
Second compound 0.1 µM
  pIC50: 7.21
Second compound 0.316 µM
  pIC50: 7.23
Second compound 1 µM
  pIC50: 7.27
Second compound 3.16 µM
  pIC50: 7.25
Second compound 10 µM
  pIC50: 7.43
[1]
  viability, T/C: 94.8%
[2]
  viability, T/C: 89.4%
[3]
  viability, T/C: 73.1%
[4]
  viability, T/C: 47.9%
Second compound 0.0316 µM, first compound 0.316 µM
  viability, T/C: 38.9%
Second compound 0.0316 µM, first compound 1 µM
  viability, T/C: 35.3%
[5]
  viability, T/C: 107%
[6]
  viability, T/C: 97.8%
[7]
  viability, T/C: 57.3%
[8]
  viability, T/C: 47.8%
Second compound 0.1 µM, first compound 0.316 µM
  viability, T/C: 34.3%
Second compound 0.1 µM, first compound 1 µM
  viability, T/C: 29.9%
[9]
  viability, T/C: 99%
[10]
  viability, T/C: 86.1%
[11]
  viability, T/C: 61.7%
[12]
  viability, T/C: 38.3%
Second compound 0.316 µM, first compound 0.316 µM
  viability, T/C: 37%
Second compound 0.316 µM, first compound 1 µM
  viability, T/C: 29.3%
[13]
  viability, T/C: 108%
[14]
  viability, T/C: 89.9%
[15]
  viability, T/C: 56.1%
[16]
  viability, T/C: 41.3%
Second compound 1 µM, first compound 0.316 µM
  viability, T/C: 35.8%
Second compound 1 µM, first compound 1 µM
  viability, T/C: 26.7%
[17]
  viability, T/C: 86.8%
[18]
  viability, T/C: 82.9%
[19]
  viability, T/C: 60.4%
[20]
  viability, T/C: 38.4%
Second compound 3.16 µM, first compound 0.316 µM
  viability, T/C: 43.8%
Second compound 3.16 µM, first compound 1 µM
  viability, T/C: 29.1%
[21]
  viability, T/C: 104%
[22]
  viability, T/C: 81.3%
[23]
  viability, T/C: 47.5%
[24]
  viability, T/C: 38.3%
Second compound 10 µM, first compound 0.316 µM
  viability, T/C: 34.7%
Second compound 10 µM, first compound 1 µM
  viability, T/C: 21.2%

## Cn1ncnc1[C@H]1c2n[nH]c(=O)c3cc(F)cc(c23)N[C@@H]1c1ccc(F)cc1 + Cc1cccc(N(C)C(=O)C2C(O)CCN2c2nc(C)cc(C(F)(F)F)c2C#N)c1
Second compound 0.0316 µM
  pIC50: < 7.00
Second compound 0.1 µM
  pIC50: < 7.00
Second compound 0.316 µM
  pIC50: < 7.00
Second compound 1 µM
  pIC50: < 7.00
Second compound 3.16 µM
  pIC50: < 7.00
Second compound 10 µM
  pIC50: < 7.00
Second compound 0.0316 µM, first compound 0.000316 µM
  viability, T/C: 106%
Second compound 0.0316 µM, first compound 0.001 µM
  viability, T/C: 87.5%
[1]
  viability, T/C: 92.1%
[2]
  viability, T/C: 102%
[3]
  viability, T/C: 105%
[4]
  viability, T/C: 99.3%
Second compound 0.1 µM, first compound 0.000316 µM
  viability, T/C: 108%
Second compound 0.1 µM, first compound 0.001 µM
  viability, T/C: 99.5%
[5]
  viability, T/C: 101%
[6]
  viability, T/C: 105%
[7]
  viability, T/C: 108%
[8]
  viability, T/C: 108%
Second compound 0.316 µM, first compound 0.000316 µM
  viability, T/C: 104%
Second compound 0.316 µM, first compound 0.001 µM
  viability, T/C: 104%
[9]
  viability, T/C: 109%
[10]
  viability, T/C: 105%
[11]
  viability, T/C: 110%
[12]
  viability, T/C: 97.3%
Second compound 1 µM, first compound 0.000316 µM
  viability, T/C: 101%
Second compound 1 µM, first compound 0.001 µM
  viability, T/C: 101%
[13]
  viability, T/C: 111%
[14]
  viability, T/C: 106%
[15]
  viability, T/C: 115%
[16]
  viability, T/C: 104%
Second compound 3.16 µM, first compound 0.000316 µM
  viability, T/C: 116%
Second compound 3.16 µM, first compound 0.001 µM
  viability, T/C: 106%
[17]
  viability, T/C: 101%
[18]
  viability, T/C: 109%
[19]
  viability, T/C: 104%
[20]
  viability, T/C: 97.1%
Second compound 10 µM, first compound 0.000316 µM
  viability, T/C: 106%
Second compound 10 µM, first compound 0.001 µM
  viability, T/C: 107%
[21]
  viability, T/C: 111%
[22]
  viability, T/C: 102%
[23]
  viability, T/C: 99.1%
[24]
  viability, T/C: 98.6%
